Laboratory results as given in patent US20080255224A1, “PHARM[…] OF PSORIASIS” (priority 2007, published 2008).

Experiments:
[1] = test system: epidermal keratinocyte differentiation; conditions: cited from earlier work
[2] = test system: keratinocyte proliferation; conditions: in vitro; cited from earlier work
psoriasis = experiment: Oral nabilone in a patient suffering from psoriasis, inpatient, unblinded; assay type: in vivo, human
Experimental: A patient suffering from psoriasis was treated with oral nabilone on an inpatient, unblinded basis. The patient suffered from psoriasis which had not responded well to prior drug treatments. To assess whether nabilone was beneficial in alleviating symptoms, nabilone at a dose of 1 mg was added to all other anti-inflammatory and anti-psoriatic medications. The results were dramatic. The regimen administered was a 0.5 mg dosage twice daily for four days, and then 1 mg twice daily for five days and eventually 1 mg daily was administered to the patient. Itch which had been intolerable and incessant abolished with the 1st dose. By the 10th day of therapy the skin redness had disappeared.

[3] = prior use for nausea and vomiting of chemotherapy; cited from earlier work

**Q.** With CCCCC/C=C\C/C=C\C/C=C\C/C=C\CCCC(=O)NCCO [Anadamide] as the compound, how does the “Effect on epidermal keratinocyte differentiation” value [1] read?
**A.** inhibits

**Q.** With COc1ccc2c(c1)c(CC(=O)N1CCOCC1)c(C)n2C(=O)c1ccc(Cl)cc1 [BML 190] as the compound, how does the “Inhibition of keratinocyte proliferation” value [2] read?
**A.** only partial inhibition

**Q.** For CCCCCCC(C)(C)c1cc(O)c2c(c1)OC(C)(C)[C@@H]1CC=C(CO)C[C@@H]21 [HU210], which “Inhibition of keratinocyte proliferation” value [2] is on record?
**A.** concentration-dependent response

**Q.** For CCCn1c(C)c(C(=O)c2cccc3ccccc23)c2ccccc21 [JWH015], which “Inhibition of keratinocyte proliferation” value [2] is on record?
**A.** only partial inhibition

**Q.** Which Itch (psoriasis; oral nabilone added to all other anti-inflammatory and anti-psoriatic medications, with the 1st dose (0.5 mg)) does the source give for CCCCCCC(C)(C)c1cc(O)c2c(c1)OC(C)(C)C1CCC(=O)CC21 (centres unmarked) [nabilone] here?
**A.** abolished

**Q.** And the Skin redness (psoriasis; oral, by the 10th day of therapy (0.5 mg twice daily for four days, then 1 mg twice daily for five days, then 1 mg daily))?
**A.** disappeared

**Q.** What about the Immunosuppressive potential [3] of the same compound?
**A.** does not show immunosuppressive potential

**Q.** What about the Tolerability [3] of the same compound?
**A.** well tolerated
